Values joined by “and” are separate entries in the source; they are usually repeats but may differ in a detail not shown here. Equal entries are not always repeated.
Molecular target: Sirt6 (Homo sapiens, UniProt Q8N6T7)
Test: Sirt6-dependent peptide deacetylation, FLUOR DE LYS / Sirt6 fluorometric activity kit
Assay type: biochemical
Details: mean ± SD, at least two independent experiments; for Activation Fold 100 μM: compound at 100 μM; for Activation Fold 30 μM: compound at 30 μM

Sirt6, sequence (Q8N6T7 whole entry): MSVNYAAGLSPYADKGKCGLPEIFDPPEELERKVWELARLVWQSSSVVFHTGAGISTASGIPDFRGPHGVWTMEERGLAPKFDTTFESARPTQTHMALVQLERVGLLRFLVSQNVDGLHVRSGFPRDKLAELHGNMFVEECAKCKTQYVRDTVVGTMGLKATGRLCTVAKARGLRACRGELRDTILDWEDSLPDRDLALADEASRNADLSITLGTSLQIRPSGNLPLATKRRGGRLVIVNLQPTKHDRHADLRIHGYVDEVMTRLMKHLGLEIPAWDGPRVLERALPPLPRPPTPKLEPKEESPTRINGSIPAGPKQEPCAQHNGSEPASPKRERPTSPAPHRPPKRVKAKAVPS

| Compound | Activation Fold 100 μM | Activation Fold 30 μM |
| --- | --- | --- |
| Clc1ncccc1C1Nc2ccccc2-n2cccc21 (stereo not shown) [Compound 14, 4-(2-Chloropyridin-3-yl)-4,5-dihydropyrrolo[1,2-a]quinoxaline] | 1.04 ± 0.02 fold |  |
| CN(C)c1ncccc1C1Nc2ccccc2-n2cccc21 (stereo not shown) [Compound 15, 3-(4,5-Dihydropyrrolo[1,2-a]quinoxalin-4-yl)-N,N-dimethylpyridin-2-amine] | 1.08 ± 0.09 fold |  |
| c1ccc2c(c1)NC(c1cccnc1N1CCC1)c1cccn1-2 (stereo not shown) [Compound 16, 4-(2-(Azetidin-1-yl)pyridin-3-yl)-4,5-dihydropyrrolo[1,2-a]quinoxaline] | 1.38 ± 0.11 fold |  |
| OC1CN(c2ncccc2C2Nc3ccccc3-n3cccc32)C1 (stereo not shown) [Compound 17, 1-(3-(4,5-Dihydropyrrolo[1,2-a]quinoxalin-4-yl)pyridin-2-yl)azetidin-3-ol] | 1.47 ± 0.10 fold |  |
| c1ccc2c(c1)NC(c1cccnc1N1CCCC1)c1cccn1-2 (stereo not shown) [Compound 18, 4-(2-(Pyrrolidin-1-yl)pyridin-3-yl)-4,5-dihydropyrrolo[1,2-a]quinoxaline] | 1.22 ± 0.03 fold |  |
| CN1CCCN(c2ncccc2C2Nc3ccccc3-n3cccc32)CC1 (stereo not shown) [Compound 19, 4-(2-(4-Methyl-1,4-diazepan-1-yl)pyridin-3-yl)-4,5-dihydropyrrolo[1,2-a]quinoxaline] | 4.23 ± 0.06 fold | 2.18 ± 0.02 fold |
| CN1C[C@@H]2CN(c3ncccc3C3Nc4ccccc4-n4cccc43)C[C@@H]2C1 (stereo partly drawn) [Compound 20, 4-(2-((3aR,6aS)-5-Methylhexahydropyrrolo[3,4-c]pyrrol-2(1H)-yl)pyridin-3-yl)-4,5-dihydropyrrolo[1,2-a]quinoxaline] | 4.24 ± 0.04 fold | 2.00 ± 0.11 fold |
| CN1CCN(c2ncccc2C2Nc3ccccc3-n3cccc32)CC1 (stereo not shown) [Compound 21, 4-(2-(4-Methylpiperazin-1-yl)pyridin-3-yl)-4,5-dihydropyrrolo[1,2-a]quinoxaline] | 4.62 fold and 4.62 ± 0.12 fold | 2.44 fold and 2.44 ± 0.04 fold |
| CC(=O)N1CCN(c2ncccc2C2Nc3ccccc3-n3cccc32)CC1 (stereo not shown) [Compound 22, 1-(4-(3-(4,5-Dihydropyrrolo[1,2-a]quinoxalin-4-yl)pyridin-2-yl)piperazin-1-yl)ethan-1-one] | 2.74 fold and 2.74 ± 0.10 fold | 1.60 ± 0.01 fold |

Now from value to molecule:

| Activation Fold 100 μM | Activation Fold 30 μM | Compound |
| --- | --- | --- |
| 3.63 fold and 3.63 ± 0.10 fold | 2.03 ± 0.02 fold | CS(=O)(=O)N1CCN(c2ncccc2C2Nc3ccccc3-n3cccc32)CC1 (stereo not shown) [Compound 23, 4-(2-(4-(Methylsulfonyl)piperazin-1-yl)pyridin-3-yl)-4,5-dihydropyrrolo[1,2-a]quinoxaline] |
| ~2 fold and 1.54 ± 0.03 fold |  | FC1(F)CCN(c2ncccc2C2Nc3ccccc3-n3cccc32)CC1 (stereo not shown) [Compound 25, 4-(2-(4,4-Difluoropiperidin-1-yl)pyridin-3-yl)-4,5-dihydropyrrolo[1,2-a]quinoxaline] |
| ~2 fold and 2.24 ± 0.09 fold | 1.32 ± 0.01 fold | O=S1(=O)CCN(c2ncccc2C2Nc3ccccc3-n3cccc32)CC1 (stereo not shown) [Compound 26, 4-(3-(4,5-Dihydropyrrolo[1,2-a]quinoxalin-4-yl)pyridin-2-yl)thiomorpholine 1,1-dioxide] |
| ~2 fold and 2.38 ± 0.15 fold | 1.29 ± 0.05 fold | OC1CCN(c2ncccc2C2Nc3ccccc3-n3cccc32)CC1 (stereo not shown) [Compound 27, 1-(3-(4,5-Dihydropyrrolo[1,2-a]quinoxalin-4-yl)pyridin-2-yl)piperidin-4-ol] |
| 3.44 fold and 3.44 ± 0.07 fold | 1.89 ± 0.01 fold | c1ccc2c(c1)NC(c1cccnc1N1CCC(N3CCCC3)CC1)c1cccn1-2 (stereo not shown) [Compound 29, 4-(2-(4-(Pyrrolidin-1-yl)piperidin-1-yl)pyridin-3-yl)-4,5-dihydropyrrolo[1,2-a]quinoxaline] |
